Test results reported in PubChem BioAssay (NCI).
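Briefly, cells in 96-well plates were exposed to five compound concentrations for 48 h, and endpoints were estimated by linear interpolation. GI50 marks 50% less growth. TGI is the concentration that stops growth completely.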

What was measured:
Test in all cases: NCI anticancer screen, dose series, 48 h
[1] = system: TK-10 renal
[2] = system: NCI-H23 lung
[3] = system: HT29 colon
[4] = system: MDA-MB-231 breast
[5] = system: OVCAR-4 ovarian
[6] = system: SW-620 colon
[7] = system: NCI-H460 lung
[8] = system: MDA-MB-435
[9] = system: RPMI-8226 leukemia
[10] = system: MDA-MB-468 breast
[11] = system: PC-3 prostate
[12] = system: EKVX NSCLC
[13] = system: IGROV1 ovarian
[14] = system: LOX IMVI melanoma
[15] = system: A549 NSCLC
[16] = system: UACC-62 melanoma
[17] = system: 786-0 renal
[18] = system: SNB-19 CNS
[19] = system: MCF7 breast
[20] = system: CCRF-CEM leukemia
[21] = system: SF-539 CNS
[22] = system: SK-OV-3 ovarian
[23] = system: CAKI-1 renal
[24] = system: SNB-75 CNS
[25] = system: MOLT-4 leukemia
[26] = system: OVCAR-3 ovarian
[27] = system: OVCAR-8 ovarian
[28] = system: T-47D breast
[29] = system: MALME-3M melanoma
[30] = system: HOP-92 NSCLC
[31] = system: UO-31 renal
[32] = system: HOP-62 NSCLC
[33] = system: SN12C renal
[34] = system: A498 renal
[35] = system: COLO 205 colon
[36] = system: NCI-H226 lung
[37] = system: DU-145 prostate
[38] = system: HCC-2998 colon
[39] = system: SK-MEL-5 melanoma
[40] = system: K-562 leukemia
[41] = system: ACHN renal
[42] = system: UACC-257 melanoma
[43] = system: HCT-116 colon
[44] = system: BT-549 breast
[45] = system: NCI/ADR-RES ovarian
[46] = system: SK-MEL-2 melanoma
[47] = system: SF-295 CNS
[48] = system: U251 CNS
[49] = system: OVCAR-5 ovarian
[50] = system: HS 578T breast
[51] = system: HCT-15 colon
[52] = system: KM12 colon
[53] = system: RXF 393 renal
[54] = system: SK-MEL-28 melanoma
[55] = system: NCI-H522 lung
[56] = system: SF-268 CNS
[57] = system: HL-60(TB) leukemia
[58] = system: M14 melanoma

Compound: Cc1ccc(S(=O)(=O)c2nc(S(=O)(=O)c3ccc(C)cc3)c(Cl)s2)cc1
- GI50 [1]: > 100 µM
- TGI [1]: > 100 µM
- GI50 [2]: > 100 µM
- TGI [2]: > 100 µM
- GI50 [3]: > 100 µM
- TGI [3]: > 100 µM
- GI50 [4]: > 100 µM
- TGI [4]: > 100 µM
- GI50 [5]: > 100 µM
- TGI [5]: > 100 µM
- GI50 [6]: > 100 µM
- TGI [6]: > 100 µM
- GI50 [7]: > 100 µM
- TGI [7]: > 100 µM
- GI50 [8]: > 100 µM
- TGI [8]: > 100 µM
- GI50 [9]: > 100 µM
- TGI [9]: > 100 µM
- GI50 [10]: > 100 µM
- TGI [10]: > 100 µM
- GI50 [11]: > 100 µM
- TGI [11]: > 100 µM
- GI50 [12]: > 100 µM
- TGI [12]: > 100 µM
- GI50 [13]: > 100 µM
- TGI [13]: > 100 µM
- GI50 [14]: > 100 µM
- TGI [14]: > 100 µM
- GI50 [15]: > 100 µM
- TGI [15]: > 100 µM
- GI50 [16]: > 100 µM
- TGI [16]: > 100 µM
- GI50 [17]: > 100 µM
- TGI [17]: > 100 µM
- GI50 [18]: > 100 µM
- TGI [18]: > 100 µM
- GI50 [19]: > 100 µM
- TGI [19]: > 100 µM
- GI50 [20]: > 100 µM
- TGI [20]: > 100 µM
- GI50 [21]: > 100 µM
- TGI [21]: > 100 µM
- GI50 [22]: > 100 µM
- TGI [22]: > 100 µM
- GI50 [23]: > 100 µM
- TGI [23]: > 100 µM
- GI50 [24]: > 100 µM
- TGI [24]: > 100 µM
- GI50 [25]: > 100 µM
- TGI [25]: > 100 µM
- GI50 [26]: > 100 µM
- TGI [26]: > 100 µM
- GI50 [27]: > 100 µM
- TGI [27]: > 100 µM
- GI50 [28]: > 100 µM
- TGI [28]: > 100 µM
- GI50 [29]: > 100 µM
- TGI [29]: > 100 µM
- GI50 [30]: > 100 µM
- TGI [30]: > 100 µM
- GI50 [31]: > 100 µM
- TGI [31]: > 100 µM
- GI50 [32]: > 100 µM
- TGI [32]: > 100 µM
- GI50 [33]: > 100 µM
- TGI [33]: > 100 µM
- GI50 [34]: > 100 µM
- TGI [34]: > 100 µM
- GI50 [35]: > 100 µM
- TGI [35]: > 100 µM
- GI50 [36]: > 100 µM
- TGI [36]: > 100 µM
- GI50 [37]: > 100 µM
- TGI [37]: > 100 µM
- GI50 [38]: > 100 µM
- TGI [38]: > 100 µM
- GI50 [39]: > 100 µM
- TGI [39]: > 100 µM
- GI50 [40]: > 100 µM
- TGI [40]: > 100 µM
- GI50 [41]: > 100 µM
- TGI [41]: > 100 µM
- GI50 [42]: > 100 µM
- TGI [42]: > 100 µM
- GI50 [43]: > 100 µM
- TGI [43]: > 100 µM
- GI50 [44]: > 100 µM
- TGI [44]: > 100 µM
- GI50 [45]: > 100 µM
- TGI [45]: > 100 µM
- GI50 [46]: > 100 µM
- TGI [46]: > 100 µM
- GI50 [47]: > 100 µM
- TGI [47]: > 100 µM
- GI50 [48]: > 100 µM
- TGI [48]: > 100 µM
- GI50 [49]: > 100 µM
- TGI [49]: > 100 µM
- GI50 [50]: > 100 µM
- TGI [50]: > 100 µM
- GI50 [51]: > 100 µM
- TGI [51]: > 100 µM
- GI50 [52]: > 100 µM
- TGI [52]: > 100 µM
- GI50 [53]: > 100 µM
- TGI [53]: > 100 µM
- GI50 [54]: > 100 µM
- TGI [54]: > 100 µM
- GI50 [55]: > 100 µM
- TGI [55]: > 100 µM
- GI50 [56]: > 100 µM
- TGI [56]: > 100 µM
- GI50 [57]: > 100 µM
- TGI [57]: > 100 µM
- GI50 [58]: > 100 µM
- TGI [58]: > 100 µM
